In PMC3034772 (Pharmaceutical research, 2010):
“And” between values parts separate entries of the source, which are not always exact repeats. Equal entries are not always repeated. Where two headings read alike, the source gives them in different places.

How the values were obtained:
[1] = cited from earlier work
[2] = Charge class Q, dominant calculated charge state at pH 7.4; type: physicochemical
[3] = cited from earlier work; remark: listed apart in the source
[4] = In combo PAMPA-BBB model, calculated log Po in situ
[5] = PAMPA; for Pm^7.4: pH 7.4
[6] = In situ brain perfusion, individual literature values; conditions: from literature PS
[7] = physchem; conditions: pKa
[8] = physchem
[9] = mouse, in vivo
[10] = in vivo
[11] = cited from earlier work; remark: listed apart in the source
[12] = in vivo; cited from earlier work
[13] = Double-Sink PAMPA; conditions: intrinsic permeability, Type DS, Double-Sink PAMPA data scaled to the 3 μL level
[14] = PAMPA
[15] = In situ brain perfusion permeability; conditions: from literature PS
[16] = dominant calculated concentration fraction of the drug in a charge state

## O=c1c(O)c(-c2ccc(O)c(O)c2)oc2cc(O)cc(O)c12 [Quercetin]
[1]; efflux inhibition: PSC833
  PS: 2 10^−4 mLg^−1s^−1
  log PS: −3.67
[2]; [16]
  Q (charge class): 0
[3]; efflux inhibition GF120918
  PS: 22 10^−4 mLg^−1s^−1
  log PS: −2.65
[4]; difference observed minus calculated, external set, no efflux inhibition
  obs–calc (log Po^in situ): −0.4
[4]; efflux inhibition GF120918
  obs–calc (log Po^in situ): 0.7
[4]; efflux inhibition: PSC833
  obs–calc (log Po^in situ): −0.3
[5]
  log PABL: −4.92
  log Po: −4.40
  log Ppara: −6.87
  Pm^7.4: 5
[6]; efflux inhibition GF120918
  log Po^in situ (obs): −4.03
[7]
  pKa: 9.4

## COc1ccc2c3c1O[C@H]1C[C@@H](O)C=C[C@@]31CCN(C)C2 [Galanthamine]
[8]
  pKa: 8.62
[2]
  Q (charge class): +
[9]
  log Po^in situ (obs): −3.21
[10]
  log Po^in situ (obs): −3.24
[3]; in vivo
  PS: 33 10^−4 mLg^−1s^−1
  log PS: −2.48
[11]; mouse, in vivo
  PS: 35 10^−4 mLg^−1s^−1
  log PS: −2.46
[4]
  obs–calc (log Po^in situ): 0.2
[12]
  log BB (brain-to-plasma total concentration ratio): 0.00
[5]
  log PABL: −4.89
  log Po: −3.41
  log Ppara: −7.73
  Pm^7.4: 22

## O=C(O)c1ccccc1O [Salicylic Acid]
[2]; [16]
  Q (charge class): −
[13]
  log Po: −3.34
[4]; no efflux inhibition
  obs–calc (log Po^in situ): 0.9

## CN/C(=N/CCSCc1nc[nH]c1C)NC#N [Cimetidine]
[14]
  log PABL: −4.62
  log Po: −6.40
[14]; pH 7.4
  Pm^7.4: 0.4
[2]; [16]
  Q (charge class): 0
[11]; efflux inhibition bcrp(−/−)
  PS: 1 10^−4 mLg^−1s^−1
  log PS: −4.08
[4]; efflux inhibition bcrp(−/−)
  obs–calc (log Po^in situ): −0.4
[4]; efflux inhibition mdr1a(−/−)
  obs–calc (log Po^in situ): 0.0
[4]; no efflux inhibition
  obs–calc (log Po^in situ): −0.4 and −0.2
[15]; efflux inhibition bcrp(−/−)
  log Po^in situ (obs): −5.95
[7]
  pKa: 6.13

## C=C[C@H]1C[N@@]2CC[C@H]1C[C@@H]2[C@@H](O)c1ccnc2ccc(OC)cc12 [Quinidine]
[1]; rat, in vivo
  PS: 4 10^−4 mLg^−1s^−1
[2]; [16]
  Q (charge class): +

## COc1ccc2c3c1O[C@H]1[C@@H](O)C=C[C@H]4[C@@H](C2)N(C)CC[C@@]341 [Codeine]
[2]
  Q (charge class): +
[10]
  log Po^in situ (obs): −3.80
[3]; in vivo
  PS: 33 10^−4 mLg^−1s^−1
  log PS: −2.48
[4]
  obs–calc (log Po^in situ): −0.2
[12]
  log BB (brain-to-plasma total concentration ratio): 0.55
[5]
  log PABL: −4.69
  log Po: −3.68
  log Ppara: −7.16
  Pm^7.4: 27

## CC[C@]1(O)C[C@H]2CN(CCc3c([nH]c4ccccc34)[C@@](C(=O)OC)(c3cc4c(cc3OC)N(C=O)[C@H]3[C@@](O)(C(=O)OC)[C@H](OC(C)=O)[C@]5(CC)C=CCN6CC[C@]43[C@@H]65)C2)C1 [Vincristine]
[2]; [16]
  Q (charge class): 0
[11]; efflux inhibition mrp1(−/−)
  PS: 1 10^−4 mLg^−1s^−1
  log PS: −4.25
[4]; efflux inhibition mdr1a(−/−)
  obs–calc (log Po^in situ): −0.1
[4]; efflux inhibition mrp1(−/−)
  obs–calc (log Po^in situ): −0.5
[5]
  log PABL: −4.62
  log Po: −4.54
  log Ppara: −7.67
  Pm^7.4: 14
[15]; efflux inhibition mrp1(−/−)
  log Po^in situ (obs): −5.95

## CCCC(CCC)C(=O)O [Valproic Acid]
[2]; [16]
  Q (charge class): −
[13]
  log Po: −3.77
[3]; in vivo
  PS: 93 10^−4 mLg^−1s^−1
  log PS: −2.03
[4]; efflux inhibition column: Kd
  obs–calc (log Po^in situ): −0.2
[4]; efflux inhibition mdr1a(−/−)
  obs–calc (log Po^in situ): −0.2
[6]; efflux inhibition column: Kd
  log Po^in situ (obs): −2.54

## COc1cccc2c1C(=O)c1c(O)c3c(c(O)c1C2=O)C[C@@](O)(C(=O)CO)C[C@@H]3O[C@H]1C[C@H](N)[C@H](O)[C@H](C)O1 [Doxorubicin]
[2]; [16]
  Q (charge class): +
[3]; efflux inhibition verapamil
  PS: 4 10^−4 mLg^−1s^−1
  log PS: −3.44
[11]; efflux inhibition mrp1(−/−)
  PS: 2 10^−4 mLg^−1s^−1
  log PS: −3.66
[4]; efflux inhibition mdr1a(−/−)
  obs–calc (log Po^in situ): 1.7
[4]; efflux inhibition mrp1(−/−)
  obs–calc (log Po^in situ): 1.4
[4]; efflux inhibition verapamil
  obs–calc (log Po^in situ): 1.6
[5]
  log PABL: −4.61
  log Po: −4.23
  log Ppara: −12
  Pm^7.4: 0.3
[6]; efflux inhibition verapamil
  log Po^in situ (obs): −3.14
[15]; efflux inhibition mrp1(−/−)
  log Po^in situ (obs): −3.35
